Results: patent publication US20120245120A1, “ZINC SUCROSE OCTASULFATES, THEIR PREPARATION, AND PHARMACEUTICAL AND COSMETIC USES THEREOF” (PIERRE FABRE DERMO-COSMETIQUE, priority 2009, published 2012)

Test system: keratinocyte cell lines HaCAT
Test: In vitro cell migration assay (Oris Cell Migration Assay kit)
Assay type: cell-based, human
Design: Average OD: scale not given here
Details: for % activity/TGFβ / % activity/negative control / Average OD: HaCaT migration
Experimental: The purpose of this study was to assess the effect of zinc sucrose octasulfate on cell migration of keratinocyte cell lines HaCAT, using an Oris Cell Migration Assay Kit (Platypus Technologies). This study was carried out in comparison with potassium sucrose octasulfate, and sodium sucrose octasulfate.
Spontaneously immortalized human keratinocyte cell line HaCaT, frequently referred to in literature as a standard model.
The protocol used for the cell migration study is based on the use of a 96-well Oris Cell Migration Assay kit (Platypus Technologies-TEBU), providing miniaturization and quantification of this cell process.
The principle of this assay is to investigate the cell migration towards the centre of the well of a 96-well plate. A stopper is placed in some wells, in order to create a detection zone of 2 mm in diameter. Then the stoppers are removed after the cells have well adhered to the surface around them, thus allowing the cells to migrate towards the detection zone. The plates without the stoppers and with the active substances are incubated at 37° C. for 24 hours in DMEM 0% SVF. Following this, the amount of cells located in the zone where the stopper was, is analyzed, in order to assess cell migration. A mask restricts visualization and reading to cells located in this zone only. For each condition, the average for 4 to 8 wells is calculated.
The results are expressed as OD (proportional to the amount of migrated cells).
Percent activity with regard to the negative control is calculated as: […]
Percent activity with regard to TGFβ is calculated as: […]

[1] = Experiment 1, 1 μM, 24 hours at 37° C., DMEM 0% SVF, OD proportional to amount of migrated cells
[2] = Experiment 2, 1 μM, 24 hours at 37° C., DMEM 0% SVF, OD proportional to amount of migrated cells
[3] = summary statement, no concentration given
[4] = Experiment 1, 5 ng/mL, 24 hours, positive control
[5] = Experiment 2, 5 ng/mL, 24 hours, positive control

For O=S(=O)([O-])OC[C@H]1O[C@@](COS(=O)(=O)[O-])(O[C@H]2O[C@H](COS(=O)(=O)[O-])[C@@H](OS(=O)(=O)[O-])[C@H](OS(=O)(=O)[O-])[C@H]2OS(=O)(=O)[O-])[C@@H](OS(=O)(=O)[O-])[C@@H]1OS(=O)(=O)[O-].[K+].[K+].[K+].[K+].[K+].[K+].[K+].[K+] [SOS-K, Potassium sucrose octasulfate], the “% activity/TGFβ” value (Experiment 1, 1 μM, 24 hours) was 6.9%, the “% activity/negative control” value (Experiment 1, 1 μM, 24 hours) was 113.5% and the “Average OD” value [1] was 99.5. For the same compound, the “% activity/TGFβ” value (Experiment 2, 1 μM, 24 hours) was 42.2%, the “% activity/negative control” value (Experiment 2, 1 μM, 24 hours) was 135.3% and the “Average OD” value [2] was 321.3. For the same compound, the “induction of keratinocyte migration (in words)” value (“induction” for short) (at the concentrations tested) was “do not induce keratinocyte migration” and the “induction” value [3] was “do not induce cell migration”.

In the case of O=S(=O)([O-])OC[C@H]1O[C@@](COS(=O)(=O)[O-])(O[C@H]2O[C@H](COS(=O)(=O)[O-])[C@@H](OS(=O)(=O)[O-])[C@H](OS(=O)(=O)[O-])[C@H]2OS(=O)(=O)[O-])[C@@H](OS(=O)(=O)[O-])[C@@H]1OS(=O)(=O)[O-].[Na+].[Na+].[Na+].[Na+].[Na+].[Na+].[Na+].[Na+] [SOS-Na, Sodium sucrose octasulfate], the “% activity/TGFβ” value (Experiment 1, 1 μM, 24 hours) is reported as −34.6%, the “% activity/negative control” value (Experiment 1, 1 μM, 24 hours) is reported as 32.6% and the “Average OD” value [1] is reported as 28.6. For the same compound, the “% activity/TGFβ” value (Experiment 2, 1 μM, 24 hours) was −47.1%, the “% activity/negative control” value (Experiment 2, 1 μM, 24 hours) was 59.9% and the “Average OD” value [2] was 142.3. For the same compound, the “induction” value (at the concentrations tested) was “do not induce keratinocyte migration” and the “induction” value [3] was “do not induce cell migration”.

With “TGFβ: Positive control: TGFβ1, polypeptide growth factor” the “induction” value (5 ng/mL, both experiments, positive control) was “induces keratinocyte migration reproducibly”, the “% activity/negative control” value [4] was 294.9% and the “Average OD” value [4] was 258.6. For the same compound, the “% activity/negative control” value [5] was 183.8% and the “Average OD” value [5] was 436.3.

zinc sucrose octasulfate [SOS-Zn] was tested, and the “activity compared with the positive control TGFβ (in words)” value (1 μM vs TGFβ 5 ng/mL) was “as active as the positive control TGFβ”, the “induction” value (1 μM, both experiments) was “induces cell migration reproducibly” and the “% activity/TGFβ” value (Experiment 1, 1 μM, 24 hours) was 128.3%. The “% activity/negative control” value (Experiment 1, 1 μM, 24 hours) was 350.0%, the “Average OD” value [1] was 306.9 and the “% activity/TGFβ” value (Experiment 2, 1 μM, 24 hours) was 90.7%. The “% activity/negative control” value (Experiment 2, 1 μM, 24 hours) was 176.0%, the “Average OD” value [2] was 417.8 and the “induction” value [3] was “induces keratinocyte migration”.
